Assay [1] has as its target T1, recombinant human MEK 1 (MAPKK) / human ERK2 (MAPK) (Homo sapiens, UniProt P28482+Q02750).
T1 construct: GST; made in house
Put plainly: Mitogen Activated Protein Kinase (MAPK) test procedure (Mek-Erk coupled). The assay is classed as biochemical. Particulars: MEK1-activated ERK2, 33P ATP, peptide substrate. The method, then: Mitogen Activated Protein Kinase (MAPK) Test Procedure
To evaluate inhibitors of the MAP (mitogen activated protein) kinase a two component coupled standard pharmacological test procedure, which measures phosphorylation of a serine/threonine residue in an appropriate sequence in the substrate in the presence and absence of a putative inhibitor, is used. Recombinant human MEK 1 (MAPKK) is first used to activate recombinant human ERK2 (MAPK) and the activated MAPK (ERK) is incubated with substrate (myelin basic protein peptide (MBPP) or Myc peptide) in the presence of ATP, Mg^+2 and radiolabeled ^33P ATP. The phosphorylated peptide is captured on a P 81 phosphocellulose filter (paper filter or embedded in microtiter plate) ished and counted by scintillation methods.
The peptide substrates used in the assay are MBPP, peptide substrate (APRTPGGRR), or synthetic Myc substrate, (KKFELLPTPPLSPSRR•5 TFA). […]
The reaction is run as follows in 50 mM Tris kinase buffer, pH 7.4 in a reaction volume of 50 ul. […] The filters are briefly air dried before addition of scintillant and samples are counted in the appropriate scintillation counter set up for reading ^33P isotope. […]
The raw data is captured as counts per minute (cpm). […] Mean cpm data is tabulated by group and % inhibition by a test compound is calculated as (corrected cpm control−corrected·cpm sample/control)×100=% inhibition). […]

A further assay relates to LoVo. Nature of the assay: Cell based screen for inhibitors of Raf and/or Mek kinase (SRB), LoVo. Particulars: Homo sapiens, 96 h, LoVo cells, four days incubation, (a)/(b)/(c) = average of two/three/five runs. Also noted: species or system human. As for the experimental part:
Cell Based Screen for Inhibitors of Raf and/or Mek Kinase. Materials
Cell Lines: Human adenocarcinoma cell line LoVo, known to be growth inhibited by low nM concentrations of a reference standard inhibitor of Ras and human adenocarcinoma cell line CaCo-2, known to be growth resistant to the same reference compound.
Cell Media: RPMI 1640 with 10% Fetal Bovine Serum supplemented with L-glutamine and Penicillin/Streptomycin.
Cells are plated at 2000 cells per well for cell line LoVo and 1500 cells for cell line CaCo-2 in 96 well plates. Cells are plated in media (200 μl) and allowed to adhere overnight at 37° C. At 24 hours post plating, compounds are added directly at a volume of 0.5 μl. For the qualitative screen (compounds screened at 25 μM) compound is added directly to cells. For the quantitative screen, compound is first diluted in DMSO to generate concentrations of compound or reference standard of: 1, 5, 10 and 25 μM. It is advisable to make the dilutions in an identical 96 well plate so that compounds can be added using a multichannel micropipettor set at 0.5 μl. The cells are then incubated for four days after which the media is removed using a 12 well manifold by first tipping the plate forward at a 45 degree angle and then inserting the manifold in an upright orientation to prevent the tips of the manifold from disturbing cells at the bottom of the plate. 200 μl of normal saline is then added to each well using an 8 well multichannel pipettor, followed by the careful addition of 50 μl of 50% TCA. The plates are then incubated for 2 hours at 4° C., after which the supernatant is removed using the same technique as above and the plated cells are washed twice with 200 μl water. The plates are then air dried and 50 μl of SRB stock solution is carefully added so that the entire bottom of each well is covered. This again can be done using an 8 well multichannel pipettor. The SRB is incubated with fixed cells for 15 minutes at room temperature after which the SRB is removed with the manifold as described above and the plates washed twice with 350 μl of 1% acetic acid per well each time. The plates are then air dried after which the bound SRB is released from protein by the addition of 200 μl of Tris base. Resolubilizing the SRB is aided by placing the plates on a rotator for 15-30 minutes. The absorbance of each well is determined at 550 or 562 nm using a microtiter plate reader.
Each compound or dilution thereof is performed in triplicate. Outliers are identified by visual inspection of the data. Each plate should have a “0” control (vehicle only).
Quantitative Assay: A standard curve is constructed by plotting the concentration of compound against the average absorbance calculated at that concentration. A curve is plotted and the concentration at which the curve passes through the 50% the absorbance mark seen in the “0” control well is the IC50 calculated for that compound. Multiple entries for a given compound indicate that it is tested multiple times.

A word on the IC50: it is the concentration at which inhibition is half-maximal.

T1 sequence (P28482 whole entry): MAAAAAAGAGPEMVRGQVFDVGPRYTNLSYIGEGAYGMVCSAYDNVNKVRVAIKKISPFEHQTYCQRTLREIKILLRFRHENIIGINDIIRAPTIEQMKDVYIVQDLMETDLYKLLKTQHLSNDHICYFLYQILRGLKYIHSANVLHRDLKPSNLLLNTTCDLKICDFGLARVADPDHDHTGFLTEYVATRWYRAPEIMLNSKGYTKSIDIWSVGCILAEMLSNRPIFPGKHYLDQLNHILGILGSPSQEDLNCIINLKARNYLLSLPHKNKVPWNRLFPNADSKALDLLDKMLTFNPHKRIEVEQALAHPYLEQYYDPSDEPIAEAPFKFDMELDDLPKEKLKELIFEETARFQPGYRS
T1 sequence (Q02750 whole entry): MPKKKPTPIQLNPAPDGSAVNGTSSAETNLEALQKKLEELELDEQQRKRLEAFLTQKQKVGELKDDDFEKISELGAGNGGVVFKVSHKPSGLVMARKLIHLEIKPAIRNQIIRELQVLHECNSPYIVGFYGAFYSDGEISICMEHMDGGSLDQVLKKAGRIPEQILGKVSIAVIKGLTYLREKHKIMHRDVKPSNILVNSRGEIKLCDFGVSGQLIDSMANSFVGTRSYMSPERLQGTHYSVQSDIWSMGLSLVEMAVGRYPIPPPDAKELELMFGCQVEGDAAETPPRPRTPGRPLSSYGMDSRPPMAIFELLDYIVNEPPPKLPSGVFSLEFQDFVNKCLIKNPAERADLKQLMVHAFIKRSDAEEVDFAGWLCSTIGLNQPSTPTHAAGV

With `COc1cc2c(Nc3ccc(Oc4ccccc4)cc3)c(C#N)cnc2cc1OCCN1CCC(N2CCCCC2)CC1` [Example 32, 7-(2-[1,4′]Bipiperidinyl-1′-yl-ethoxy)-6-methoxy-4-(4-phenoxy-phenylamino)-quinoline-3-carbonitrile], the IC50 in assay [1] amounted to 45 nM; in the assay on LoVo it was 900 nM.

The values are drawn from patent US7767671B2, “3-Quinolinecarbonitrile protein kinase inhibitors” (Wyeth, priority 2004, dated 2010).
